According to patent US8258256B2, “Compositions and methods for the treatment of cancer” (The Johns Hopkins University, priority 2006, dated 2012):
One block for each compound: values may come before it. Bridge positions count the residues as written; N and C are the ends. Primed or numbered codes have the meaning given here. Ends that are not written are not given here. Peptide text beside a SMILES is read from it. I, II: the chains in the order shown. * marks the point of attachment. Biotin = O=C1N[C@H]2[C@H](CS[C@H]2CCCCC(=O)*)N1; FITC′ = fluorescein isothiocyanate label

Columns and labels:
PSMA = target: T1, PSMA (Homo sapiens, UniProt Q04609); experiment: Soluble biotinylated peptide binding to immobilized PSMA or BSA; conditions: biotinylated peptide incubated with immobilized PSMA (0.625 μgs) or BSA
T1 construct: made in house; host or cells: Drosophila Schneider's S2 cells, vector pMT/BiP/V5-HisA (pMT-His-PSMA), purified from conditioned media on Ni-NTA
Procedure: FIGS. 3A-B depict (A) Soluble […] (Biotin) (SEQ ID NO: 37) peptide binding to BSA and PSMA. Recombinant PSMA (0.625 μgs) and BSA (25 μgs/ml) were immobilized and indicated concentrations of the biotinylated […] (SEQ ID NO:1) peptide were incubated with immobilized PSMA or BSA. […] (B) Comparison of PSMA binding to monomeric (SEQ ID NO: 37) and dimeric (core peptide disclosed as SEQ ID NO: 1) form of the […] (SEQ ID NO:1) peptide. Biotin labeled monomeric and dimeric peptide were immobilized on streptavidin-coated plates then incubated with His-PSMA (100 nM). Results are the mean binding in 4 replicate wells each ±S.D.
Soluble Synthetic […] (SEQ ID NO:1) peptide binds selectively to PSMA—On the basis of the phage binding results, the […] (SEQ ID NO:1) peptide was synthesized with biotin coupled to the C-terminus.

His-PSMA [1] = target: T2, His-PSMA (Homo sapiens, UniProt Q04609); conditions: substrate hydrolysis by PSMA, reference (21); cited from earlier work
T2 construct: made in house; host or cells: Drosophila Schneider's S2 cells, vector pMT/BiP/V5-HisA (pMT-His-PSMA), purified from conditioned media on Ni-NTA

[2] = target: T3, full length membrane bound form of PSMA (Homo sapiens, UniProt Q04609); experiment: NAAG hydrolysis assay with cell lysates from PSMA-producing LNCaP; type: biochemical; conditions: peptide at 60 μM
T3 construct: endogenous in cells; host or cells: LNCaP cell lysate
Procedure: (§1) PSMA Enzymatic Assay The enzymatic activity assay for PSMA was adapted as previously described by Tiffany et al. (21). PSMA (5 nM) incubated with or without peptides was added to PSMA assay buffer (10 mM CoCl2, 50 mM Tris, pH 7.4). Following a 30 mins incubation at 37° C., N-acetyl-aspartyl-3H glutamate (3H-NAAG) (NEN, Boston, Mass.) was added to final concentration of 25 nM and reactions incubated for 15 mins at 37° C. Data were collected during linear phase of hydrolysis (i.e. less than 20% cleavage of total substrate).
[…] (SEQ ID NO:1) peptide inhibits PSMA's enzyme activity—Functionally, PSMA has been classified as a glutamate carboxypeptidase II (25) with activity as both an N-acetylated α-linked acidic dipeptidase (NAALADase) (26) and as a pteroyl poly-γ-glutamyl carboxypeptidase (i.e. folate hydrolase) (27). […] Therefore, the monomeric and dimeric […] (SEQ ID NO:1) peptides were incubated initially with PSMA for 30 mins and then ^3H NAAG substrate was added to prevent any NAAG hydrolysis before the peptide is able to bind to PSMA. Control peptides included the […] (SEQ ID NO: 22) peptide and a short peptide HHWA (SEQ ID NO: 26) containing the apparent consensus motif from the phage display. […] In a second experiment, cell lysates from PSMA-producing LNCaP were used instead of purified recombinant His-PSMA.

His-PSMA [3] = target: T2, His-PSMA; experiment: PSMA enzymatic assay (NAALADase activity, 3H-NAAG hydrolysis); type: biochemical; conditions: ratio of inhibitory potency, dimeric vs monomeric peptide
Procedure: FIG. 4 depicts the inhibition of NAALADase activity of PSMA by monomeric and dimeric peptides. His-PSMA hydrolysis of ^3H-NAAG was assayed as described in the methods in the absence or presence of indicated concentration of monomeric or dimeric peptide. After 15 min incubation at 37° C. amount of released 3H-Glu was determined. Percent inhibition is the ratio of amount of 3H-Glu released in presence of peptide compared to control (i.e. His-PSMA only). Data plotted are average of duplicate experiments and best fit line is included.
as §1

[4] = test system: PSMA-positive (LNCaP, CWR22R) human prostate cancer cells; experiment: Fluorescent peptide binding to PSMA-positive prostate cancer cells (confocal microscopy); type: cell-based
Procedure: FIG. 5 depicts dimeric […] (SEQ ID NO:1) peptide binds selectively to PSMA-producing prostate cancer cells. Attached PSMA-positive (LNCaP, CWR22R) and PSMA-negative (PC-3, DU145) human prostate cancer were prelabeled with Orange Cell Tracker (Invitrogen) at 2.5 μM in RPMI for 30 mins. After washing with Hanks balanced salt solution, cells were incubated with FITC-labeled monomeric (50 μM) or dimeric (5 μM) […] (SEQ ID NO:1) peptide in 1% fetal calf serum containing media for 1 hr. Cells were washed 3 times with PBS and fixed with 1% Formalin for ½ hr at room temperature. Cells were visualized using Zeiss Meta 510 confocal microscope at 20× magnification. Top panels show orange cell tracker labeled cells (rhodamine filter set); middle panels show labeled peptide binding (FITC filter set); bottom panel show overlay of both panels.
Binding of […] (SEQ ID NO:1) peptides to PSMA-expressing cell lines—To analyze peptide binding to membrane bound PSMA, fluorescently labeled peptides were synthesized by coupling FITC to the C-terminus of either the monomeric or dimeric peptide. […] In contrast, cell binding of the dimeric […] (SEQ ID NO:1) peptide could be easily visualized at concentrations as low as 5 μM, FIG. 5. Labeled, dimeric peptide bound to a similar degree to both CWR22R and LNCAP.

T2 sequence (Q04609 44-750 limits assumed): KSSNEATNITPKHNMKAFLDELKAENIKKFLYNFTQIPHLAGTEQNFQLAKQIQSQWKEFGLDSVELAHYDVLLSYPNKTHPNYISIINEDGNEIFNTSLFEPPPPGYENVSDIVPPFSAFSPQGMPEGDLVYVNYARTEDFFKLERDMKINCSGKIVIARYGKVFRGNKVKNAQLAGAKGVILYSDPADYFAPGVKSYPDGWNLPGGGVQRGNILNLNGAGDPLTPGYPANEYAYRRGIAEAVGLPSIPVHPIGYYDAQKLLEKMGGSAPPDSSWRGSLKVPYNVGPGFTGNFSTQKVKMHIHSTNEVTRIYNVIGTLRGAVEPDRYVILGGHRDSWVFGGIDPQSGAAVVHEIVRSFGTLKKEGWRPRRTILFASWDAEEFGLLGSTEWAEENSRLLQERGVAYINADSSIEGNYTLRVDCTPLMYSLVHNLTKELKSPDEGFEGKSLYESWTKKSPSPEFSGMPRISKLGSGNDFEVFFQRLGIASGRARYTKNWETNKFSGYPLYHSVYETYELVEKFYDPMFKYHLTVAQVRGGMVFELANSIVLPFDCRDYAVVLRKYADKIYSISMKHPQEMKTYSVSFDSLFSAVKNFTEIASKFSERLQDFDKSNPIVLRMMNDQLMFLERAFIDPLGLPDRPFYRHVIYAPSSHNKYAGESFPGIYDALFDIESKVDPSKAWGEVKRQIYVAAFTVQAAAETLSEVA
T1 sequence (Q04609 44-750 limits assumed): as above
T3 sequence (Q04609 whole entry): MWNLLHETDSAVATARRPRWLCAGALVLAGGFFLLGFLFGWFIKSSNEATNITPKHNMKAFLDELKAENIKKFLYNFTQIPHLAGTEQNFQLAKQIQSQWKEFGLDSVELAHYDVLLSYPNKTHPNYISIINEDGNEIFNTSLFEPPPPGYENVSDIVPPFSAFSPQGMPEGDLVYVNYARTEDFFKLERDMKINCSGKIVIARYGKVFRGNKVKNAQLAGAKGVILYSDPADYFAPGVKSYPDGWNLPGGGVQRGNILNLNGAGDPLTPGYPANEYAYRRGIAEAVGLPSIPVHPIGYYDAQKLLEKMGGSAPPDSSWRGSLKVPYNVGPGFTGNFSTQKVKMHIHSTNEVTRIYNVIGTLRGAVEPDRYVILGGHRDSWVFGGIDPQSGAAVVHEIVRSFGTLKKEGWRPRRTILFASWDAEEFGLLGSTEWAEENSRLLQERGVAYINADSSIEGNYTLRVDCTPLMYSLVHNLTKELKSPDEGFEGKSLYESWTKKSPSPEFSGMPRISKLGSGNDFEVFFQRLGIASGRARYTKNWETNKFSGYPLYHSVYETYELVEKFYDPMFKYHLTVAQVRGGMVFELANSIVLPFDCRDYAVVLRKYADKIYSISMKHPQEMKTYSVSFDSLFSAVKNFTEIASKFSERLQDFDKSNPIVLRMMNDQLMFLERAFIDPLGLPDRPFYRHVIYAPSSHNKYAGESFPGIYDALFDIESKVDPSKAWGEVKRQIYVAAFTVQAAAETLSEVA

Compound: QMARIPKRLARHK-biotin [reference compound]
binding to immobilized PSMA compared to BSA (PSMA): no specific binding to immobilized PSMA compared to BSA

Compound: WQPDTAHHWATLK(Biotin)
binding to immobilized PSMA compared to BSA (PSMA): significantly higher binding to PSMA at peptide concentrations of 50 μM and 500 μM

Compound: CC(=O)N[C@@H](CC(=O)O)C(=O)N[C@@H](CCC(=O)O)C(=O)O [^3H NAAG, N-acetyl-aspartyl-3H glutamate] (Ac-Asp-Glu-OH)
Km (His-PSMA [1]): 0.43 µM
kcat for PSMA (His-PSMA [1]): 0.6 s⁻¹

inhibition of PSMA in LNCaP cell lysates [2]: inhibited
Compound: WQPDTAHHWATL-OH

PSMA inhibition of dimer relative to monomer (His-PSMA [3]): ~10 fold
Compound: CC(C)C[C@H](NC(=O)[C@@H](NC(=O)[C@H](C)NC(=O)[C@H](Cc1c[nH]c2ccccc12)NC(=O)[C@H](Cc1c[nH]cn1)NC(=O)[C@H](Cc1c[nH]cn1)NC(=O)[C@H](C)NC(=O)[C@@H](NC(=O)[C@H](CC(=O)O)NC(=O)[C@@H]1CCCN1C(=O)[C@H](CCC(N)=O)NC(=O)[C@@H](N)Cc1c[nH]c2ccccc12)[C@@H](C)O)[C@@H](C)O)C(=O)NCCCC[C@H](NC(=O)[C@H](CC(C)C)NC(=O)[C@@H](NC(=O)[C@H](C)NC(=O)[C@H](Cc1c[nH]c2ccccc12)NC(=O)[C@H](Cc1c[nH]cn1)NC(=O)[C@H](Cc1c[nH]cn1)NC(=O)[C@H](C)NC(=O)[C@@H](NC(=O)[C@H](CC(=O)O)NC(=O)[C@@H]1CCCN1C(=O)[C@H](CCC(N)=O)NC(=O)[C@@H](N)Cc1c[nH]c2ccccc12)[C@@H](C)O)[C@@H](C)O)C(=O)N[C@@H](CCCCNC(=O)CCCC[C@@H]1SC[C@@H]2NC(=O)N[C@@H]21)C(=O)O (I: H-WQPDTAHHWATLKK(Biotin)-OH / II: H-WQPDTAHHWATL; amide I:13-II:C; N-terminus assumed)

Compound: FITC-labeled monomeric WQPDTAHHWATL peptide: fluorescently labeled peptide made by coupling FITC to the C-terminus of the monomeric peptide (WQPDTAHHWATL-{FITC′})
cell binding above background autofluorescence ([4]; FITC-labeled peptide at 1, 5, 10, 50 μM): could not be observed at any of the tested concentrations
peptide concentration at which cell binding could be visualized ([4]; FITC-labeled peptide tested at 1, 5, 10, 50 μM, 1% fetal bovine serum media, 1 hr): > 50 µM
